Laboratory results from article PMC7619385 (ACS infectious diseases, 2025).
Like-named read-outs stand apart in the source and are kept apart here.

Columns and labels:
LmxCLK1 = biological target: T1, LmxCLK1 (Leishmania mexicana, UniProt E9AMP2); experiment: biochemical; assay type: binding
T1 sequence (E9AMP2 1-422): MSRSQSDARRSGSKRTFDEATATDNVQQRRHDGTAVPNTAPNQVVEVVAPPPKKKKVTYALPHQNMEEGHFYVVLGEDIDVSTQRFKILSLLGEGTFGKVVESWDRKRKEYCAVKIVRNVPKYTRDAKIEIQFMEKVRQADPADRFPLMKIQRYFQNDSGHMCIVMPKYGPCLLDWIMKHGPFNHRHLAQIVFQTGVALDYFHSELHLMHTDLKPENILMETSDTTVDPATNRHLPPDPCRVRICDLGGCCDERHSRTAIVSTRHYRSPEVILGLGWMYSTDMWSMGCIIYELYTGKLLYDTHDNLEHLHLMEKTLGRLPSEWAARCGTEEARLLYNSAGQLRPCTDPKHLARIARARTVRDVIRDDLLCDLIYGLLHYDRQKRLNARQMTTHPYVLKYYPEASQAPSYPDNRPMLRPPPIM

NLuc::LmxCLK1 = NLuc::LmxCLK1 (Leishmania mexicana, UniProt E9AMP2); experiment: cell-based; assay type: cell-based; conditions: for Target occupancy Run 1 / Target occupancy Run 2 / Target occupancy Average: 10 µM compound, tracer SV366, promastigotes; for Target occupancy Average: mean of two experiments
Method: All compounds were tested at a fixed concentration of 10 µM to enable direct comparison of their target occupancy in live cells.
Serially diluted probes (5 µL) were added to 85 µL of cells in culture media or 85 µL of purified protein. Final well volumes were adjusted to 100 µL with sterile Opti-MEM™ I Reduced Serum Medium (Thermo-Scientific) – for wells containing cells; or Kinase Buffer - for wells containing purified protein. For tracer displacement assays, samples were prepared as above, but final volume was brought to 100 µL by addition of vehicle or serially-diluted test compounds. Final DMSO concentration in these assays was 1%. […] Light emissions at 460+10 nm (BRET donor) and at 610+20 nm (BRET acceptor) were sequentially recorded (integration time = 0.5 s, gain = 3600) using a luminometer (BMG LABTECH Clariostar or Biotek Synergy HT). BRET values are reported in milli-BRET (mBRET) units (mBU), obtained by dividing the acceptor luminescence by the donor luminescence and multiplying the result by a factor of 1,000. BRET values were converted to blank-corrected probe occupancies (%) according to equation [1]: (1) Probeoccupancy(%)=X−Z/Y−Z×100 where X = mBRET value in the presence of the test compound and the probe, Y = mBRET value in the presence of probe only, and Z = mBRET value in the absence of probe and test compound. […]

[1] = DSF, 10 µM compound, 2 µM LmxCLK1, Run 1
[2] = DSF, 10 µM compound, 2 µM LmxCLK1, Run 2
[3] = DSF, 10 µM compound, 2 µM LmxCLK1, mean of two runs
[4] = DSF, 10 µM compound, 2 µM LmxCLK1, Run 1, read-out: ΔTm Run 1
[5] = DSF, 10 µM compound, 2 µM LmxCLK1, Run 2, read-out: ΔTm Run 2
[6] = DSF, 10 µM compound, 2 µM LmxCLK1, mean of two runs, read-out: ΔTm Average
[7] = read-out: Target occupancy Average
[8] = read-out: Target occupancy Run 1
[9] = read-out: Target occupancy Run 2

Row | Molecule | ΔTm Run 1 (LmxCLK1; [1]) [°C] | ΔTm Run 2 (LmxCLK1; [2]) [°C] | ΔTm Average (LmxCLK1; [3]) [°C] | Target occupancy Run 1 (NLuc::LmxCLK1) [%] | Target occupancy Run 2 (NLuc::LmxCLK1) [%] | Target occupancy Average (NLuc::LmxCLK1) [%] | ΔTm at 10 µM (LmxCLK1; [4]) [°C] | ΔTm at 10 µM (LmxCLK1; [5]) [°C] | ΔTm at 10 µM (LmxCLK1; [6]) [°C] | receptor occupancy at 10 µM (NLuc::LmxCLK1; [7]) [%] | receptor occupancy at 10 µM (NLuc::LmxCLK1; [8]) [%] | receptor occupancy at 10 µM (NLuc::LmxCLK1; [9]) [%] | ΔTm Average (LmxCLK1) [°C] | ΔTm Run 1 (LmxCLK1) [°C] | ΔTm Run 2 (LmxCLK1) [°C]
1 | COc1ccc2c(c1)c(C1=C(c3c[nH]c4ccccc34)C(=O)NC1=O)cn2CCCN(C)C [Go 6983] | 0.6 | 0.0 | 0.3 | -11.0 | -14.1 | -12.6 | – | – | – | – | – | – | – | – | –
2 | CN1CC[C@H](c2c(O)cc(O)c3c(=O)cc(-c4ccccc4Cl)oc23)[C@H](O)C1.Cl [Flavopiridol HCl] | 0.1 | -0.1 | 0.0 | 1.6 | -3.3 | -0.8 | – | – | – | – | – | – | – | – | –
3 | C#Cc1cccc(Nc2ncnc3cc(OCCOC)c(OCCO)cc23)c1 [OSI-420] | 0.2 | 0.1 | 0.1 | -6.8 | 3.7 | -1.5 | – | – | – | – | – | – | – | – | –
4 | CC(C)N(CCC(=O)c1ccc2ccccc2c1)Cc1ccccc1.Cl [ZM 39923 HCl] | 0.0 | -0.3 | -0.2 | 0.2 | -18.8 | -9.3 | – | – | – | – | – | – | – | – | –
5 | O=C1NC(=O)/C(=C/c2ccc3nccc(-c4ccncc4)c3c2)S1 [GSK1059615] | – | – | – | – | – | – | 0.3 | -0.2 | 0 | -2.8 | -4.2 | -1.5 | – | – | –
6 | CNC(=O)c1cc(Oc2ccc(NC(=O)Nc3ccc(Cl)c(C(F)(F)F)c3)c(F)c2)ccn1 [Regorafenib (BAY 73-4506)] | 0.1 | -0.3 | -0.1 | -4.0 | -5.3 | -4.6 | – | – | – | – | – | – | – | – | –
7 | COC(=O)c1ccc2c(c1)NC(=O)/C2=C(\Nc1ccc(N(C)C(=O)CN2CCN(C)CC2)cc1)c1ccccc1 [Nintedanib (BIBF 1120)] | 0.3 | 0.2 | 0.2 | -1.8 | -11.3 | -6.6 | – | – | – | – | – | – | – | – | –
8 | COc1cc2ncnc(Nc3ccc(O)c(Br)c3)c2cc1OC [WHI-P154] | 0.1 | 0.1 | 0.1 | 7.3 | -12.9 | -2.8 | – | – | – | – | – | – | – | – | –
9 | COc1ccc(-c2cc3c(C)nc(N)nc3n([C@H]3CC[C@H](OCCO)CC3)c2=O)cn1 [PF-04691502] | – | – | – | -3.4 | -25.8 | -14.6 | – | – | – | – | – | – | 0.2 | 0.3 | 0.1
10 | O=C(NCc1ccccc1)c1csc(Nc2ccncn2)n1 [Thiazovivin] | 0.3 | 0.0 | 0.2 | -3.6 | 1.5 | -1.1 | – | – | – | – | – | – | – | – | –
11 | C[C@@H]1COC(Nc2ccc3ncnc(Nc4ccc(OCc5nccs5)c(Cl)c4)c3c2)=N1 [Varlitinib] | – | – | – | – | – | – | 0.2 | 0 | 0.1 | -0.8 | 2.7 | -4.3 | – | – | –
12 | COc1cc(N2CCC(N)CC2)ccc1Nc1ncc(Cl)c(-c2c[nH]c3ccccc23)n1 [AZD3463] | 0.6 | 0.3 | 0.4 | 8.0 | -12.9 | -2.4 | – | – | – | – | – | – | – | – | –
13 | AZD4547 | -0.1 | -0.3 | -0.2 | -24.6 | 21.5 | -1.5 | – | – | – | – | – | – | – | – | –
14 | C[C@H](Nc1ncnc2nc[nH]c12)c1cc2cccc(Cl)c2c(=O)n1-c1ccccc1 [IPI-145 (INK1197)] | – | – | – | -2.8 | 0.6 | -1.1 | – | – | – | – | – | – | – | – | –
15 | Cc1ccc(NC(=O)c2ccc(CN3CCN(C)CC3)cc2)cc1Nc1nc(-c2cccnc2)cs1 [Masitinib (AB1010)] | 0.3 | 0.2 | 0.2 | – | – | – | – | – | – | – | – | – | – | – | –
16 | Nc1nc(N)c2nc(-c3cccc(O)c3)c(-c3cccc(O)c3)nc2n1 [TG100-115] | – | – | – | – | – | – | – | – | – | – | – | – | 1.5 | 1.7 | 1.3
